{"source": "patent US20250042961A1", "about": "“P53 PEPTIDOMIMETIC MACROCYCLES” (MERCK SHARP & DOHME LLC, priority 2021, published 2025)", "key": {"MDM2 (1-125)": {"biological_target": "T1, MDM2 (1-125) (Homo sapiens, UniProt Q00987)", "T1 construct": "GST (N); His6 (N); TEV cleavage site ENLYFQG (N); made in house; host or cells: Escherichia coli BL21 (DE3) Rosetta T1R", "T1 sequence (Q00987 with tags, fused parts or gaps)": "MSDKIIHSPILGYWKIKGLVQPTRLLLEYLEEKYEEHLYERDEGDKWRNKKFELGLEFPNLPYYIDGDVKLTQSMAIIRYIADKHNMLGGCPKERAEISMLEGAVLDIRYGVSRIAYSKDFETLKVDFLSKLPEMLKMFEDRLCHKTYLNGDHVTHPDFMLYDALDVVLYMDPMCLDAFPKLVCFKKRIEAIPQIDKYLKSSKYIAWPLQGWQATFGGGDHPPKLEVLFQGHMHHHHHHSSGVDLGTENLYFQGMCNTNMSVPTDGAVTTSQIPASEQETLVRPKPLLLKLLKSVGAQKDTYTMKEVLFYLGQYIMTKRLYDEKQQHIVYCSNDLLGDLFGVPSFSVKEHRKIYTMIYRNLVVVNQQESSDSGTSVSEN", "experiment": "Competitive fluorescence anisotropy assay (FP Kd MDM2)", "type": "binding", "excerpt": "For use in the peptide binding assay, a human MDM2 1-125 sequence was cloned into a pNIC-GST vector. The TEV (tobacco etch virus) cleavage site was changed from ENLYFQS (SEQ ID NO: 13) to ENLYFQG (SEQ ID NO: 14) to give a fusion protein with the following sequence:\n[P] is the protein concentration (MDM2), [L] is the labeled peptide concentration, r is the anisotropy measured, r0 is the anisotropy of the free peptide, rb is the anisotropy of the MDM2-FAM-labeled peptide complex, Kd is the dissociation constant, [L]t is the total FAM labeled peptide concentration, and [P]t is the total MDM2 concentration. […] These values were then used to determine apparent Kd values of the respective competing ligands in subsequent competition assays in fluorescence anisotropy experiments. MDM2 and MDM4 competition experiments were performed with their respective concentrations held constant at 250 nM and 75 nM, in the presence of 50 nM of FAM-labeled 12/1. The competing molecules were then titrated against the complex of the FAM-labeled peptide and protein. Apparent Kd values were determined by fitting the experimental data to the equations shown below:\n[L]st and [L]t denote labeled ligand and total unlabeled ligand input concentrations, respectively. Kd2 is the dissociation constant of the interaction between the unlabeled ligand and the protein.\nIn all competition experiments, it is assumed that [P]t>[L]st, otherwise considerable amounts of free labeled ligand would always be present and would interfere with measurements. Kd1 is the apparent Kd for the labeled peptide used and has been experimentally determined as described in the previous paragraph. The FAM-labeled peptide was dissolved in dimethyl sulfoxide (DMSO) at 1 mM and diluted into experimental buffer. Readings were carried out with an Envision Multilabel Reader (PerkinElmer). Experiments were carried out in PBS (2.7 mM KCl, 137 mM NaCl, 10 mM Na2HPO4 and 2 mM KH2PO4 (pH 7.4)) and 0.1% Tween-20 buffer. All titrations were carried out in triplicate. Curve-fitting was carried out using Prism 4.0 (GraphPad®). […] Negative control titrations of the ligands under investigation were also carried out with the fluorescently labeled peptide (in the absence of MDM2) to ensure no interactions were occurring between the ligands and the FAM-labeled peptide. […] Measurements were taken a minimum of three times (biological replicates) and values are reported as geometric means of the replicates."}, "[1]": {"tested_on": "p53 responsive β-lactamase reporter in HCT116 cells", "experiment": "p53 beta-lactamase reporter gene cellular functional assay", "type": "cell-based", "protocol": "HCT116 cells were stably transfected with a p53 responsive β-lactamase reporter and expanded in McCoy's 5A Medium with 10% fetal bovine serum (FBS), Blasticidin, and Penicillin/Streptomycin and then transferred to 1.5 mL freezing vials and stored under liquid nitrogen in growth media containing 5% DMSO. […] The cells were then seeded into a 384-well plate at a density of 8000 cells per well. […] The final working concentration of DMSO was 0.5%. β-lactamase activity was detected using the ToxBLAzer Dual Screen (Invitrogen), as per the manufacturer's instructions. Measurements were made using the Envision multiplate reader (PerkinElmer). […] Measurements were taken a minimum of three times (biological replicates) and values are reported as geometric means of the replicates."}, "[2]": {"tested_on": "Jump-In T-REx CHO-K1 BLA cells", "experiment": "Tetracycline beta-lactamase reporter gene cellular assay (counterscreen)", "type": "cell-based", "protocol": "This assay was based on Jump-In™ T-REx™ CHO-K1 BLA cells containing a stably integrated β-lactamase under the control of an inducible cytomegalovirus (CMV) promoter. Cells were maintained in Dulbecco's Minimal Eagle Medium (DMEM) with 10% fetal bovine serum (FBS), Blasticidin, and Penicillin/Streptomycin and then transferred to 1.5 mL freezing vials and stored under liquid nitrogen in growth media containing 5% DMSO. […] Cells were seeded into a 384-well plate at a density of 4000 cells per well. […] The final working concentration of DMSO was 0.5%. β-lactamase activity was detected using the ToxBLAzer Dual Screen (Invitrogen), as per the manufacturer's instructions. Measurements were carried out using the Envision multiplate reader (PerkinElmer). Counterscreen activity was defined as the amount of β-lactamase activity induced by tetracycline. Measurements were taken a minimum of three times (biological replicates) and values are reported as geometric means of the replicates."}, "[3]": {"experiment": "Helicity stated in text (method not given)", "type": "physicochemical", "settings": "aqueous solution for compound 6"}}, "note": "Like-named read-outs stand apart in the source and are kept apart here. *1 amine or outer side, *2 acyl side, *3 side chain or, on linkers, in order; H or OH if unused. Where a SMILES comes first, the peptide text is derived from it. Bridges are numbered along the chain shown (N, C = ends). [ ]: non-standard residue; d: D form. ξ: configuration not given here. ξαMeNle(6-ylidene) = CC(CCCC=[*:3])(N[*:1])C(=O)[*:2]; dPhe(4-CF3) = N[C@H](Cc1ccc(C(F)(F)F)cc1)C(=O)O; dTrp(6-F) = N[C@H](Cc1c[nH]c2cc(F)ccc12)C(=O)O", "data": [{"smiles": "CC(=O)N[C@@H](C(=O)N[C@H](C)C(=O)N[C@H](Cc1c[nH]c2cc(F)ccc12)C(=O)N[C@H](Cc1ccc(O)cc1)C(=O)N[C@H](C)C(=O)NC1(C)CCC/C=C\\CCCC(C)(C(=O)N[C@H](CC(C)C)C(=O)N[C@H](CO)C(=O)N[C@H](C)C(=O)N[C@H](Cc2ccccc2)C(=O)N[C@H](C)C(=O)N[C@H](C)C(=O)N[C@H](C)C(=O)N[C@H](C)C(N)=O)NC(=O)[C@@H](CCC(N)=O)NC(=O)[C@@H](CCC(=O)O)NC(=O)[C@@H](Cc2ccc(C(F)(F)F)cc2)NC1=O)[C@H](C)O.N", "note": "(stereo partly drawn) [Compound 6] (Ac-[dT][dA][dTrp(6-F)][dY][dA][ξαMeNle(6-ylidene)][dPhe(4-CF3)][dE][dQ][ξαMeNle(6-ylidene)][dL][dS][dA][dF][dA][dA][dA][dA]-NH2; staple (Z) 6-10)", "values": [{"measurement": "Kd", "setting": "MDM2 (1-125)", "result": 0.03, "unit": "µM"}, {"measurement": "EC50", "setting": "[1]; read-out: p53 activity EC50 (0% FBS, 4 h), 0% FBS, 4 h", "result": 9.65, "unit": "µM"}, {"measurement": "EC50", "setting": "[1]; read-out: p53 activity EC50 (10% FBS, 16 h), 10% FBS, 16 h", "result": 1.75, "unit": "µM"}, {"measurement": "EC50", "setting": "[2]; read-out: Counter screen EC50 (0% FBS, 4 h), 0% FBS, 4 h", "result": "> 50", "unit": "µM"}, {"measurement": "EC50", "setting": "[2]; read-out: Counter screen EC50 (10% FBS, 16 h), 10% FBS, 16 h", "result": "> 50", "unit": "µM"}, {"measurement": "helicity", "setting": "[3]", "result": "about 65%"}, {"measurement": "chromatographic logD", "setting": "physchem", "result": 3.06}, {"measurement": "solubility", "setting": "Solubility (PBS, pH 7)", "result": 146, "unit": "µM"}]}]}
